Measured values as given in patent publication US20260226073A1 (AURIGENE ONCOLOGY LIMITED, priority 2023, published 2026).

Experiments:
[1] = target: T1, human recombinant CBL-b (human Biotin CBL-b recombinant protein a.a. 39-426) (Homo sapiens, UniProt Q13191); assay: Biochemical assay for CBL-b inhibition (ligand displacement TR-FRET); assay type: binding; settings: 50 nM CBL-b, 0.3 μM Bodipy FL-Probe, read-out: IC50 (CBL-b inhibition, group)
T1 construct: human Biotin CBL-b recombinant protein a.a; 39-426; Biotin (biotinylated); made in house
Method in brief: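 Ligand-displacement TR-FRET: 0.3 μM Bodipy FL probe competes with compound for 50 nM biotin-CBL-b (aa 39-426) after a 60 min RT compound pre-incubation; terbium-streptavidin detection, 60 min each step. Dose-response sigmoidal fitting gave IC50 and % maximum inhibition.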

[2] = system: NFAT signaling pathway in Jurkat NFAT reporter cells; assay: Jurkat NFAT reporter assay; assay type: cell-based; settings: Homo sapiens, 30 min with compound, then soluble anti-human CD3/CD28 antibody for 6 hours, luciferase readout, read-out: EC50 (Group)
Method in brief: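 Results are expressed as fold change relative to stimulated, inhibitor-free cells. Stimulation was 6 h with soluble anti-human CD3/CD28 antibody after a 30-min exposure of 1×10^5 NFAT-RE luciferase Jurkat reporter cells per well to the Cbl-b inhibitor; signal read by Bio-Glo bioluminescence.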

T1 sequence (Q13191 39-426): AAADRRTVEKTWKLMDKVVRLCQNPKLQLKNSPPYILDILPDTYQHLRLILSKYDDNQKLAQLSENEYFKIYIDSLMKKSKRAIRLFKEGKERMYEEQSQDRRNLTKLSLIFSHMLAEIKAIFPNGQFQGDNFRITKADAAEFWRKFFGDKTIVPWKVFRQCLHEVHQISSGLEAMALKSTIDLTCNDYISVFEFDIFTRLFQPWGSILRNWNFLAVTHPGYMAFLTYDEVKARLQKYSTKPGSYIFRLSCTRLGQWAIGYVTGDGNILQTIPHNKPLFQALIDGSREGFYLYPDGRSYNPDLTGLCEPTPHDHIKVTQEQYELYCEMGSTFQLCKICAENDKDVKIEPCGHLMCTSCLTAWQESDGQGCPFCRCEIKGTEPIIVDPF

| IC50 [1] | EC50 [2] | SMILES |
| --- | --- | --- |
| < 80 nM | < 300 nM | Cn1cnnc1CC1(c2ccc3c(c2)C(=O)N(c2cc(CNCC4CCCC4)cc(Cl)n2)C3)COC1 [Compound 159, 2-(6-Chloro-4-(((cyclopentylmethyl)amino)methyl)pyridin-2-yl)-6-(3-((4-methyl-4H-1,2,4-triazol-3-yl)methyl)oxetan-3-yl)isoindolin-1-one] |
| < 80 nM | < 300 nM | Cn1cnnc1CC1(c2ccc3c(c2)C(=O)N(c2cc(CNCC4CCC4)cc(C(F)(F)F)n2)C3)COC1 [Compound 162, 2-(4-(((Cyclobutylmethyl)amino)methyl)-6-(trifluoromethyl)pyridin-2-yl)-6-(3-((4-methyl-4H-1,2,4-triazol-3-yl)methyl)oxetan-3-yl)isoindolin-1-one] |
| < 80 nM | < 300 nM | Cn1cnnc1CC1(c2ccc3c(c2)C(=O)N(c2cc(CNCC4CCC4)cc(Cl)n2)C3)CCC1 [Compound 168] |
| < 80 nM | < 300 nM | Cn1cnnc1CC1(c2ccc3c(c2)C(=O)N(c2cc(CNCC4CC(F)(F)C4)cc(Cl)n2)C3)COC1 [Compound 169, 2-(6-Chloro-4-((((3,3-difluorocyclobutyl)methyl)amino)methyl)pyridin-2-yl)-6-(3-((4-methyl-4H-1,2,4-triazol-3-yl)methyl)oxetan-3-yl)isoindolin-1-one] |
| < 80 nM | 300 to 1000 nM | Cn1cnnc1CC1(c2ccc3c(c2)C(=O)N(c2cc(CNCC4(C)CCC4)cc(Cl)n2)C3)COC1 [Compound 172, 2-(6-Chloro-4-((((1-methylcyclobutyl)methyl)amino)methyl)pyridin-2-yl)-6-(3-((4-methyl-4H-1,2,4-triazol-3-yl)methyl)oxetan-3-yl)isoindolin-1-one] |
| < 80 nM | 300 to 1000 nM | Cn1cnnc1CC1(c2ccc3c(c2)C(=O)N(c2cc(CNCC4CC4(F)F)cc(Cl)n2)C3)COC1 (centres unmarked) [Compound 175, 2-(6-Chloro-4-((((2,2-difluorocyclopropyl)methyl)amino)methyl)pyridin-2-yl)-6-(3-((4-methyl-4H-1,2,4-triazol-3-yl)methyl)oxetan-3-yl)isoindolin-1-one] |
| < 80 nM | 300 to 1000 nM | CC1CN(Cc2cc(Cl)nc(N3Cc4ccc(C5(Cc6nncn6C)COC5)cc4C3=O)c2)CCC1(F)F (centres unmarked) [Compound 178] |
| < 80 nM | < 300 nM | Cn1cnnc1CC1(c2ccc3c(c2)C(=O)N(c2cc(CNCC4CCC4)cc(Cl)n2)C3)CC(C#N)C1 (centres unmarked) [Compound 182, 3-(2-(6-Chloro-4-(((cyclobutylmethyl)amino)methyl)pyridin-2-yl)-3-oxoiso-indolin-5-yl)-3-((4-methyl-4H-1,2,4-triazol-3-yl)methyl)cyclobutane-1-carbonitrile] |
| < 80 nM | 1000 to 10000 nM | Cn1cnnc1CC1(c2ccc3c(c2)C(=O)N(c2cc(CNCC4(F)CCC4)cc(Cl)n2)C3)COC1 [Compound 185] |
| < 80 nM | 1000 to 10000 nM | Cn1cnnc1CC1(c2ccc3c(c2)C(=O)N(c2cc(CNCC(C)(C)O)cc(Cl)n2)C3)COC1 [Compound 187] |
| < 80 nM | 300 to 1000 nM | Cn1cnnc1CC1(c2ccc3c(c2)C(=O)N(c2cc(CNCC4CCCO4)cc(Cl)n2)C3)COC1 (centres unmarked) [Compound 188, 2-(6-Chloro-4-((((tetrahydrofuran-2-yl)methyl)amino)methyl)pyridin-2-yl)-6-(3-((4-methyl-4H-1,2,4-triazol-3-yl)methyl)oxetan-3-yl)isoindolin-1-one] |
| < 80 nM | 1000 to 10000 nM | Cn1cnnc1CC1(c2ccc3c(c2)C(=O)N(c2cc(CNCc4cscn4)cc(Cl)n2)C3)COC1 [Compound 189] |
| < 80 nM | 1000 to 10000 nM | CC(Cc1nncn1C)Nc1ccc2c(c1)C(=O)N(c1cc(CN3CCC[C@H](C)C3)cc(Cl)n1)C2 (some centres unmarked) [Compound 190] |
| < 80 nM | 1000 to 10000 nM | Cn1cnnc1CC1(c2ccc3c(c2)C(=O)N(c2cc(CNC4CCCC4O)cc(Cl)n2)C3)COC1 (centres unmarked) [Compound 193, 2-(6-Chloro-4-(((2-hydroxycyclopentyl)amino)methyl)pyridin-2-yl)-6-(3-((4-methyl-4H-1,2,4-triazol-3-yl)methyl)oxetan-3-yl)isoindolin-1-one] |
| < 80 nM | 300 to 1000 nM | CC1CN(Cc2cc(Cl)nc(N3Cc4ccc(C5(Cc6nncn6C)COC5)cc4C3=O)c2)CC1F (centres unmarked) [Compound 197] |
| < 80 nM | 1000 to 10000 nM | Cc1nc(N2Cc3ccc(C4(Cc5nncn5C)COC4)cc3C2=O)cc(CNCC2CC2)c1F [Compound 198] |

| IC50 [1] | EC50 [2] | SMILES |
| --- | --- | --- |
| < 80 nM | < 300 nM | CC(NCC1CC1(F)F)c1cc(Cl)nc(N2Cc3ccc(C4(Cc5nncn5C)COC4)cc3C2=O)c1 (centres unmarked) [Compound 199, 2-(6-Chloro-4-(1-(((2,2-difluorocyclopropyl)methyl)amino)ethyl)pyridin-2-yl)-6-(3-((4-methyl-4H-1,2,4-triazol-3-yl)methyl)oxetan-3-yl)isoindolin-1-one] |
| < 80 nM | < 300 nM | Cn1cnnc1CC1(c2ccc3c(c2)C(=O)N(c2cc(CNC4CCCC4)cc(Cl)n2)C3)COC1 [Compound 201, 2-(6-Chloro-4-((cyclopentylamino)methyl)pyridin-2-yl)-6-(3-((4-methyl-4H-1,2,4-triazol-3-yl)methyl)oxetan-3-yl)isoindolin-1-one] |
| < 80 nM | < 300 nM | CC(CNCc1cc(Cl)nc(N2Cc3ccc(C4(Cc5nncn5C)COC4)cc3C2=O)c1)C(F)(F)F (centres unmarked) [Compound 202, 2-(6-Chloro-4-(((3,3,3-trifluoro-2-methylpropyl)amino)methyl)pyridin-2-yl)-6-(3-((4-methyl-4H-1,2,4-triazol-3-yl)methyl)oxetan-3-yl)isoindolin-1-one] |
| < 80 nM | < 300 nM | CC(NCc1cscn1)c1cc(Cl)nc(N2Cc3ccc(C4(Cc5nncn5C)COC4)cc3C2=O)c1 (centres unmarked) [Compound 205] |
| < 80 nM | 1000 to 10000 nM | Cn1cnnc1CC1(c2ccc3c(c2)C(=O)N(c2cc(CNCC4(O)CCC4)cc(Cl)n2)C3)COC1 [Compound 216] |
| < 80 nM | < 300 nM | CC(NCC1CC1)c1cc(Cl)nc(N2Cc3ccc(C4(Cc5nncn5C)CC(C#N)C4)cc3C2=O)c1 (centres unmarked) [Compound 225, 3-(2-(6-Chloro-4-(1-((cyclopropylmethyl)amino)ethyl)pyridin-2-yl)-3-oxoiso-indolin-5-yl)-3-((4-methyl-4H-1,2,4-triazol-3-yl)methyl)cyclobutane-1-carbonitrile] |
| < 80 nM | 300 to 1000 nM | Cn1cnnc1CC1(c2ccc3c(c2)C(=O)N(c2cc(CNCC4CC(F)(F)C4)cc(Cl)n2)C3)CC(C#N)C1 (centres unmarked) [Compound 227, 3-(2-(6-Chloro-4-((((3,3-difluorocyclobutyl)methyl)amino)methyl)pyridin-2-yl)-3-oxoisoindolin-5-yl)-3-((4-methyl-4H-1,2,4-triazol-3-yl)methyl)cyclobutane-1-carbo-nitrile] |
| < 80 nM | 300 to 1000 nM | Cn1cnnc1CC1(c2ccc3c(c2)C(=O)N(c2cc(CNCC4CC4(F)F)cc(Cl)n2)C3)CC(C#N)C1 (centres unmarked) [Compound 230, 3-(2-(6-Chloro-4-((((2,2-difluorocyclopropyl)methyl)amino)methyl)pyridin-2-yl)-3-oxoisoindolin-5-yl)-3-((4-methyl-4H-1,2,4-triazol-3-yl)methyl)cyclobutane-1-carbonitrile] |
| < 80 nM | 1000 to 10000 nM | Cn1cnnc1CC1(c2ccc3c(c2)C(=O)N(c2cc(CNc4nccs4)cc(Cl)n2)C3)COC1 [Compound 237] |
| < 80 nM | < 300 nM | CC(NC(C)(C)C1CC1)c1cc(Cl)nc(N2Cc3ccc(C4(Cc5nncn5C)COC4)cc3C2=O)c1 (centres unmarked) [Compound 248] |
| < 80 nM | < 300 nM | CCC(NC1CCCC1)c1cc(Cl)nc(N2Cc3ccc(C4(Cc5nncn5C)COC4)cc3C2=O)c1 (centres unmarked) [Compound 251, 2-(6-Chloro-4-(1-(cyclopentylamino)propyl)pyridin-2-yl)-6-(3-((4-methyl-4H-1,2,4-triazol-3-yl)methyl)oxetan-3-yl)isoindolin-1-one] |
| < 80 nM | < 300 nM | COC1CCCC1NCc1cc(Cl)nc(N2Cc3ccc(C4(Cc5nncn5C)COC4)cc3C2=O)c1 (centres unmarked) [Compound 253, 2-(6-Chloro-4-(((2-methoxycyclopentyl)amino)methyl)pyridin-2-yl)-6-(3-((4-methyl-4H-1,2,4-triazol-3-yl)methyl)oxetan-3-yl)isoindolin-1-one] |
| < 80 nM | 1000 to 10000 nM | Cn1cnnc1CC1(c2ccc3c(c2)C(=O)N(c2cc(CNCC4CC4)cc(Cl)n2)C3)CC2(CCC2)C1 [Compound 255, 2-(6-Chloro-4-(((cyclopropylmethyl)amino)methyl)pyridin-2-yl)-6-(2-((4-methyl-4H-1,2,4-triazol-3-yl)methyl)spiro[3.3]heptan-2-yl)isoindolin-1-one] |
| < 80 nM | 1000 to 10000 nM | Cc1cc(CNCC2CC2)cc(N2Cc3c(cc(-c4ccc(F)cc4-c4nncn4C)cc3C(F)(F)F)C2=O)n1 [Compound 256, 2-(4-(((Cyclopropylmethyl)amino)methyl)-6-methylpyridin-2-yl)-6-(4-fluoro-2-(4-methyl-4H-1,2,4-triazol-3-yl)phenyl)-4-(trifluoromethyl)isoindolin-1-one] |
| < 80 nM | 1000 to 10000 nM | Cc1cc(CN2CCC3(CC3)C2)cc(N2Cc3ccc(-c4ccc(F)cc4-c4nncn4C)cc3C2=O)n1 [Compound 259] |
